{"source": "paper PMC7892554", "about": "(Scientific Reports, 2021)", "key": {"[1]": {"test_system": "M. tuberculosis H37Rv infected mice", "assay_type": "in vivo, BALB/c mice"}, "M. tuberculosis H37Rv": {"test_system": "M. tuberculosis H37Rv", "set-up": "species or system BALB/c mice", "details": "mouse, in vivo"}, "[2]": {"details": "in vivo; cited from earlier work"}, "[3]": {"details": "mouse, in vivo, iv, 33 mg/kg"}, "in vivo": {"assay": "in vivo", "details": "male, BALB/c, mouse, iv, 33 mg/kg"}, "M. smegmatis": {"test_system": "M. smegmatis", "assay_type": "cell-based, Mycobacterium smegmatis mc^2155"}}, "note": "Entries after “also recorded” stand apart in the source; their conditions may differ. Where two headings read alike, the source gives them in different places. Positions of bridges follow the written chain, without caps; N, C: chain ends. Residues, ends and D or L forms follow the SMILES beside them.", "data": [{"compound": "NNC(=O)c1ccncc1", "note": "[isoniazid]", "values": [{"measurement": "Lung tissue destruction / inflammatory score (perivascular, peribronchiolar and alveolar infiltration)", "setting": "[1]; n = 4–5", "result": "decreased tissue destruction; also recorded: preserved alveolar structure best"}, {"measurement": "Bacterial (CFU) reduction compared to the untreated control", "setting": "M. tuberculosis H37Rv", "result": 92, "unit": "%"}]}, {"compound": "plectasin", "values": [{"measurement": "Terminal serum elimination half-life", "setting": "[2]", "result": 51, "unit": "min"}]}, {"compound": "CC[C@@H](CO)NCCN[C@@H](CC)CO", "note": "[ethambutol]", "values": [{"measurement": "Lung tissue destruction / inflammatory score (perivascular, peribronchiolar and alveolar infiltration)", "setting": "[1]; n = 4–5", "result": "more severe tissue destruction"}, {"measurement": "Bacterial (CFU) reduction compared to the untreated control", "setting": "M. tuberculosis H37Rv", "result": 79, "unit": "%"}]}, {"compound": "CC[C@H](C)[C@@H]1NC(=O)[C@H](CO)NC(=O)[C@H](CCCCN)NC(=O)[C@@H]2CSSC[C@@H](C(=O)N[C@@H](Cc3ccc(O)cc3)C(=O)O)NC(=O)[C@H](CCCCN)NC(=O)[C@@H]3CSSC[C@H](NC(=O)[C@H](CCC(N)=O)NC(=O)[C@H]([C@@H](C)CC)NC(=O)[C@H](CC(=O)O)NC(=O)[C@H](CC(=O)O)NC(=O)[C@H](CCC(=O)O)NC(=O)[C@H](CO)NC(=O)[C@H](Cc4c[nH]c5ccccc45)NC(=O)[C@@H]4CCCN4C(=O)CNC(=O)[C@H](CC(N)=O)NC(=O)[C@@H](NC(=O)CNC(=O)[C@H](Cc4ccccc4)NC(=O)CN)CSSC[C@H](NC(=O)[C@H](Cc4ccc(O)cc4)NC(=O)CNC(=O)CNC(=O)[C@H](CCCCN)NC(=O)[C@H](Cc4ccc(O)cc4)NC(=O)CNC(=O)[C@H](CCCCN)NC1=O)C(=O)N[C@@H](C)C(=O)N[C@@H](CCCNC(=N)N)C(=O)NCC(=O)NCC(=O)N[C@@H](Cc1ccccc1)C(=O)N[C@@H](C(C)C)C(=O)N3)C(=O)N[C@@H](Cc1c[nH]cn1)C(=O)N[C@@H](CC(N)=O)C(=O)N[C@@H](Cc1c[nH]cn1)C(=O)N2", "note": "[NZX] (H-GFGCNGPWSEDDIQCHNHCKSIKGYKGGYCARGGFVCKCY-OH; disulfide 4-30, 15-37, 19-39)", "values": [{"measurement": "NZX in the circulation after 240 min", "setting": "[3]", "result": "not detected"}, {"measurement": "Cmax", "setting": "in vivo", "result": 61, "unit": "µg/mL"}, {"measurement": "half-life", "setting": "in vivo", "result": 42, "unit": "min"}, {"measurement": "Lung tissue destruction / inflammatory score (perivascular, peribronchiolar and alveolar infiltration)", "setting": "[1]; mouse, in vivo", "result": "decreased tissue destruction"}, {"measurement": "Frequency at which resistant mutants emerge", "setting": "M. smegmatis", "result": "< 10^–9"}, {"measurement": "Resistant mutants detected", "setting": "M. smegmatis", "result": "did not detect any resistant mutants"}, {"measurement": "Bacterial (CFU) reduction compared to the untreated control", "setting": "M. tuberculosis H37Rv", "result": 75, "unit": "%"}]}]}
